Experimental data: article PMC11359809, “Probing the molecular basis for signal transduction through the Zinc-Activated Channel (ZAC)” (Biochemical pharmacology, 2021)

Assays:
[1] = target: T1, WT ZAC (Homo sapiens, UniProt Q401N2, A152T); assay: TEVC in Xenopus oocytes expressing WT ZAC; type: cell-based; settings: PTX at concentrations up to 100 μM; Zn^2+ 1 mM
T1 construct: expressed in transfected cells; host or cells: Xenopus oocytes injected with cRNA (pUNIV vector)
T1 sequence (Q401N2 26-412 A152T): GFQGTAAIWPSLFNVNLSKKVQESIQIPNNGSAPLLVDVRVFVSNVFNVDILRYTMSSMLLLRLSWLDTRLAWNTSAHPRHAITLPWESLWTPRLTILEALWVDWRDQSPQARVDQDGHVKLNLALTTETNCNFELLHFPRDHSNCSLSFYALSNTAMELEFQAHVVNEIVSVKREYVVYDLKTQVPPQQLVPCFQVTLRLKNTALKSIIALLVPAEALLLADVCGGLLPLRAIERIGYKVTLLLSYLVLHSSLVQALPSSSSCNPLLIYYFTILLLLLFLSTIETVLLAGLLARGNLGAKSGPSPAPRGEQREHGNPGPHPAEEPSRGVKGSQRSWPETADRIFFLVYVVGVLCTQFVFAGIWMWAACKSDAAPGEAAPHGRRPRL
Procedure: (§1) The recordings were performed at room temperature.
(§2) Analysis of the data from the TEVC recordings were performed using Clampfit software version 10.5 (Molecular Devices, Crawley, UK) and GraphPad Prism version 7.0c (GraphPad Software, La Jolla, CA). Unless otherwise stated, the inward currents induced by agonists in oocytes were normalized to the maximal response elicited by a specific agonist (agonist Imax) on each oocyte. Concentration-response and concentration-inhibition curves were fitted in GraphPad Prism by nonlinear regression using the equation for sigmoidal dose-response with variable slope. Each data point represents the mean ± S.E.M. value of recordings performed on at least five oocytes in total from at least two different batches. For the data where statistical analysis was performed, a one-way ANOVA was used. The null hypothesis was rejected at P < 0.05, and the differences between the means were analyzed by Tukey’s multiple comparisons test.

[2] = target: T2, WT hα1 GlyR (Homo sapiens, UniProt P23415); type: cell-based
T2 construct: expressed in transfected cells; host or cells: Xenopus oocytes injected with cRNA (pUNIV vector)
T2 sequence (P23415 29-457): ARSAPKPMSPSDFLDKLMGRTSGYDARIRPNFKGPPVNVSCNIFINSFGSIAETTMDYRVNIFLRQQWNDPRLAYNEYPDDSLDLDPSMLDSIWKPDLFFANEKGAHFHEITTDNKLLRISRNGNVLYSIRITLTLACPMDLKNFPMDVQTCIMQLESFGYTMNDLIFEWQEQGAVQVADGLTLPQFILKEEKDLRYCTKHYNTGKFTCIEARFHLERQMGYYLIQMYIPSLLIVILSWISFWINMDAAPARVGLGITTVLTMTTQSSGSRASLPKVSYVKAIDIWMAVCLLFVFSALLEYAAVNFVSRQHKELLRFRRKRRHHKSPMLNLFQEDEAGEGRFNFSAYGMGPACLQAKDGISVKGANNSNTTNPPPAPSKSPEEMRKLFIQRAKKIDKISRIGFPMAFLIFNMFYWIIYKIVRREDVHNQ
Description: (§3) The construction of the ZAC-pUNIV plasmid (encoding for the human WT ZAC that contains a Thr in position 128) has been described previously. The m5-HT3A and hα1 GlyR cDNAs were subcloned from their original vectors into pUNIV (Addgene, Watertown, MA) using NheI and EcoRI as restriction enzymes. […] The C-terminus modifications in these four chimeras were introduced in their cDNAs in the same way. Point mutations were introduced in cDNAs by use of the QuikChange mutagenesis kit (Stratagene, San Diego, CA). The validity and absence of unwanted mutations in the constructed cDNAs was verified by DNA sequencing (Macrogen Europe, Amsterdam, The Netherlands).
(§4) All cDNAs used for cRNA synthesis were inserted in the pUNIV vector. The cDNAs were linearized and subsequently transcribed and capped using the mMessage mMachine T7 RNA transcription kit (Ambion, Waltham, MA). […] Oocytes were incubated in a sterile modified Barth’s solution [88 mM NaCl, 1 mM KCl, 15 mM HEPES (pH 7.5), 2.4 mM NaHCO3, 0.41 mM CaCl2, 0.82 mM MgSO4, 0.3 mM Ca(NO3)2, 100 U/ml penicillin and 100 μg/ml streptomycin] at 16–18 °C. Based on experience gained with WT ZAC in a recent study, all TEVC recordings were performed two days after cRNA injection.
(§5) On the day of the TEVC recording, all compound dilutions were prepared in a saline solution [115 mM NaCl, 2.5 mM KCl, 10 mM MOPS (pH 7.5), 1.8 mM CaCl2, 0.1 mM MgCl2], and pH was adjusted to 7.5 (if needed). Oocytes were placed in a recording chamber continuously perfused with this saline solution, and the compounds were applied in the perfusate. Both voltage and current electrodes were agar-plugged with 3 M KCl with a resistance of 0.2–2.0 MΩ. Oocytes were voltage-clamped at −50 mV (except in the studies of the chimeras and their parent receptors where they were clamped at −60 mV, section 3.1), by a Gene Clamp 500B amplifier, and current signals were digitized by a Digidata 1322A (both from Axon Instruments, Union City, CA). Currents were recorded using pCLAMP 10 (Molecular Devices, Sunnyvale, CA). The recordings were performed at room temperature.
(§6) In all recordings, compounds or compound combinations were applied in the bath until the peak current decayed to a steady state (up to 30 s). […] The antagonist properties of compounds were determined by pre-application of the compound to the perfusate for 30 s followed by co-application of the compound and the agonist. In all recordings, washes of 1–5 min were executed between the ligand applications, the length of the washes depending on the agonist concentrations used and on the return to baseline current amplitude.
as §2, with “For the data where statistical analysis was performed, a one-way ANOVA was used.” left out

[3] = tested on: ZAC/hα1-Gly; assay: TEVC in oocytes expressing ZAC/hα1-Gly chimera; type: cell-based, human
Procedure: as §1, §2
(§7) Initially, we constructed four chimeric subunits fusing the ZAC ECD or TMD-ICD with the complementary domains from either the m5-HT3A or the hα1 GlyR subunit: ZAC/m5-HT3A, m5-HT3A/ZAC, ZAC/hα1-Gly and hα1-Gly/ZAC (Fig. 1A). […] (Fig. 1A).

[4] = target: T3, m5-HT3A/ZAC (Mus musculus / Homo sapiens, UniProt P23979); assay: TEVC in oocytes expressing m5-HT3A/ZAC chimera; type: cell-based; settings: pH 4.5; n = 4
T3 sequence (P23979 24-246): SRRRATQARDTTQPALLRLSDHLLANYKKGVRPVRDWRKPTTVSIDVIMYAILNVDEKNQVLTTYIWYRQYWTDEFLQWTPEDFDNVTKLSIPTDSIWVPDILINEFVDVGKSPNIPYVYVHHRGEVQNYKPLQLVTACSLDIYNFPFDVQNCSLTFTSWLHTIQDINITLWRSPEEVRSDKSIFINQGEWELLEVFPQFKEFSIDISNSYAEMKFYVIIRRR
T3 sequence (Q401N2 231-412 partner): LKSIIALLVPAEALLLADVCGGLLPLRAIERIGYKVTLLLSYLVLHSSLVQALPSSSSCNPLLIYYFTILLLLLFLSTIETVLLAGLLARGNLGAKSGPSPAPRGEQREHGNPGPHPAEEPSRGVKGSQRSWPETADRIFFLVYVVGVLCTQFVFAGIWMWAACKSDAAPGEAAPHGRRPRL
Description: as §3, §4, §5, §6, §2

[5] = tested on: ZAC/m5-HT3A; assay: TEVC in oocytes expressing ZAC/m5-HT3A chimera; type: cell-based, mouse/human; settings: pH 4.5; n = 5
Procedure: as §1, §2, §7

[6] = tested on: hα1-Gly/ZAC; assay: TEVC in oocytes expressing hα1-Gly/ZAC chimera; type: cell-based, human; settings: pH 4.5; n = 5
Procedure: as §1, §2, §7

[7] = tested on: ZAC/m5-HT3A-II; assay: TEVC in oocytes expressing ZAC/m5-HT3A-II chimera; type: cell-based, mouse/human; settings: Zn^2+ 10 mM; H^+ pH 4.0; data not shown
Procedure: as §1

[8] = target: T4, ZAC^D116A/DH8A/H210A (Homo sapiens, UniProt Q401N2, A152T/D140A/D142A/H144A); assay: TEVC in oocytes, Cluster 1 triple mutant; type: cell-based; settings: pH 4.0
T4 construct: expressed in transfected cells; host or cells: Xenopus oocytes injected with cRNA (pUNIV vector)
T4 sequence (Q401N2 26-412 D140A/D142A/H144A/A152T): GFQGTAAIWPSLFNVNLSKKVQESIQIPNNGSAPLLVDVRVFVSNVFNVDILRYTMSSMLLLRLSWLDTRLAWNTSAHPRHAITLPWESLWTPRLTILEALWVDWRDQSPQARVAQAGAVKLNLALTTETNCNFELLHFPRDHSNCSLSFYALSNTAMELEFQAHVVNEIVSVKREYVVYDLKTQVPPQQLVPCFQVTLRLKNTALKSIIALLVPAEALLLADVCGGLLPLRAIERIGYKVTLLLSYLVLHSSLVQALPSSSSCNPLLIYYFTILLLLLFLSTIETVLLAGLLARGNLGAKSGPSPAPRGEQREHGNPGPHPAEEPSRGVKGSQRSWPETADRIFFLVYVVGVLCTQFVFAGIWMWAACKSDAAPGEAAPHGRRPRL
Procedure: as §1
as §2, with “For the data where statistical analysis was performed, a one-way ANOVA was used.” left out
(§8) The putative involvement of candidate residues in Clusters 1, 2, 3 and 4 in Zn^2+ binding to ZAC was investigated in by an elaborate alanine mutagenesis scanning. […] The determined IpH 4.0 value was used in part as a control and in part to enable the distinction of ZAC mutants non-responsive to Zn^2+ due to elimination of their ability to bind the metal ion from those where the mutation had eliminated cell surface expression and/or disrupted overall functionality of the receptor complex. […]

[9] = target: T5, ZAC^H210A (Homo sapiens, UniProt Q401N2, A152T/H144A); assay: TEVC in oocytes, His120 Ala mutant; type: cell-based; settings: pH 4.0
T5 construct: expressed in transfected cells; host or cells: Xenopus oocytes injected with cRNA (pUNIV vector)
T5 sequence (Q401N2 26-412 H144A/A152T): as the sequence (Q401N2 26-412 D140A/D142A/H144A/A152T) above, with A115D, A117D counted along it
Procedure: as §1
as §2, with “For the data where statistical analysis was performed, a one-way ANOVA was used.” left out
as §8

[10] = target: T6, ZAC^E136A/H139A/D143A/H144A (Homo sapiens, UniProt Q401N2, A152T/D167A/E160A/H163A/H168A); assay: TEVC in oocytes, Cluster 2 quadruple mutant; type: cell-based; settings: Zn^2+ 10 mM; H^+ pH 4.0; data not shown
T6 construct: expressed in transfected cells; host or cells: Xenopus oocytes injected with cRNA (pUNIV vector)
T6 sequence (Q401N2 26-412 A152T/E160A/H163A/D167A/H168A): as the sequence (Q401N2 26-412 D140A/D142A/H144A/A152T) above, with A115D, A117D, A119H, E135A, H138A, D142A, H143A counted along it
Procedure: as §1
as §2, with “For the data where statistical analysis was performed, a one-way ANOVA was used.” left out
as §8

[11] = target: T7, ZAC^E24A/E89A/D105A/D108A/E130A (Homo sapiens, UniProt Q401N2, A152T/D129A/D132A/E113A/E154A/E48A); assay: TEVC in oocytes, Cluster 3 quintuple mutant; type: cell-based; settings: H^+ pH 4.0; Zn^2+ 10 mM; data not shown
T7 construct: expressed in transfected cells; host or cells: Xenopus oocytes injected with cRNA (pUNIV vector)
T7 sequence (Q401N2 26-412 E48A/E113A/D129A/D132A/A152T/E154A): as the sequence (Q401N2 26-412 D140A/D142A/H144A/A152T) above, with E23A, E88A, D104A, D107A, A115D, A117D, A119H, E129A counted along it
Procedure: as §1
as §2, with “For the data where statistical analysis was performed, a one-way ANOVA was used.” left out
as §8

Row | Molecule | inhibition of Zn^2+ EC90-mediated signalling [1] | current during 30-s preincubation of antagonist ([2]; PTX preincubation) | IC50 ([2]; inhibition of Gly EC90 (100 μM)-elicited responses, read-out: estimated IC50) [nM] | current during 30-s preincubation of antagonist ([3]; PTX preincubation) | IC50 ([3]; inhibition of Zn^2+ EC90 (10 μM)-induced currents, read-out: estimated IC50) [nM] | IpH 4.5 ± S.E.M. [4] [μA] | agonist-evoked current ([3]; pH 4.5) | IpH 4.5 ± S.E.M. [5] [μA] | IpH 4.5 ± S.E.M. [6] [μA] | agonist-evoked current [7] | IpH 4.0 range [8] | IpH 4.0 [9] | agonist responsiveness [10] | agonist responsiveness [11]
1 | picrotoxin [PTX] | did not inhibit | no such outward currents | < 1000 | substantial outward currents | > 1000 |  |  |  |  |  |  |  |  | 
2 | [H+] [H^+] |  |  |  |  |  | −0.0027 ± 0.0007 | robust currents | −0.0033 ± 0.0003 | −0.0045 ± 0.0019 | did not evoke significant currents | 40–100 nA | 30–110 nA | non-responsive | non-responsive
